Data from PMC8769072, “Proteome‐scale mapping of binding sites in the unstructured regions of the human proteome” (Molecular Systems Biology, 2022).

Test system: immobilized GST-tagged bait protein domains
Assay: ProP-PD phage selections (HD2 P8, sublibraries, HD2 P3, HD1 P8) with NGS and confidence level
Format: binding, human
Details: for HD2_endomembrane confidence: HD2 P8 endomembrane sublibrary; for HD count proportions: mean normalised NGS counts; for HD mean counts: mean raw NGS counts, all selections; for HD2-1mM_CaCl confidence: HD2 library selection with 1mM_CaCl
[1] = library HD2, bait EPS15_EH__P42566_121_215, best matching peptide
[2] = library HD2, bait EPS15_EH__P42566_121_215, confidence level of best matching peptide (4 High, 2-3 Medium, 1 Low)
[3] = library HD2, bait EPS15_EH__P42566_121_215, whether the validated benchmark motif instance was recovered in the ProP-PD selection (TRUE/FALSE)
[4] = bait AP2B1_adaptin__P63010_700_937, confidence level (4 = High, 2-3 = Medium, 1 = Low)
[5] = bait PABP-B_PABP__P11940_544_623, HD2 library, whether the validated benchmark motif instance was recovered in the ProP-PD selection (TRUE/FALSE)
[6] = HD2 library, bait TLN1_PTB__Q9Y490_309_401, known motif instance of the benchmarking set found (TRUE) or not found (FALSE) among selected peptides
[7] = bait KPNA4_Arm (O00629 68-487), HD2 library, benchmark motif instance recovered in the ProP-PD selection (TRUE/FALSE)
[8] = bait ANKRA2_Ank__Q9H9E1_142_313, library HD
[9] = bait ANKRA2_Ank__Q9H9E1_142_313, library HD2 P8
[10] = library HD2, bait CALM1_EF-hand__P0DP23_2_149, motif instance NOT in library (in_library_check FALSE, in_library_coverage 0)
[11] = bait AP2B1_adaptin__P63010_700_937, library HD
[12] = library HD2, bait VASP_EVH1__P50552_1_114, validated benchmark motif instance, in_library_check TRUE, TRUE/FALSE = instance recovered in ProP-PD selection
[13] = bait CALM1 EF-hand (P0DP23, 2-149), confidence level (4 = High, 2 or 3 = Medium, 1 = Low)
[14] = bait CALM1 EF-hand (P0DP23, 2-149), HD2 library selection, confidence level (4 = High, 2 or 3 = Medium, 1 = Low)

## EPCGQRDSPPDYHLLF
Bait NEDD4_WW_4_P46934_890_928, HD2 P3 library, confidence level (4 = High, 2-3 = Medium, 1 = Low)
  p3_HD2 confidence: 4
Bait NEDD4_WW_4_P46934_890_928, HD2 P3 library, mean NGS counts over replicate selections
  p3_HD2 mean counts: 3356
Bait NEDD4_WW_4_P46934_890_928, HD2 P3 library, mean proportion of NGS counts
  p3_HD2 count proportions: 0.1373

## PQYLNPFDEPEAFVTI
[1]
  best_specificity: 1
[2]
  best_confidence: 2
[3]
  motif_found: TRUE

## LELDRLMASLSDFRVQ
Bait PTK2_Focal-AT__Q05397_891_1050, HD2 library, confidence level (1-4) of best matching selected peptide
  best_confidence: 2
Bait PTK2_Focal-AT__Q05397_891_1050, HD2 library, specificity score of best matching selected peptide
  best_specificity: 1
Bait PTK2_Focal-AT__Q05397_891_1050, HD2 library, whether the validated benchmark motif instance was recovered in the ProP-PD selection (TRUE/FALSE)
  motif_found: TRUE

## PIPHDGNLYPRLYPELSQY [SDCBP 45-49]
HD2 library, bait PDCD6IP_Alix-V-domain__Q8WUM4_360_702, benchmark motif instance, in_library_check FALSE, in_library_coverage 0
  motif_found: FALSE

## TFNSYRKEWEELFVNNNYL [TBC1D5 58-62]
HD2 library, bait MAP1LC3A_ATG8__Q9H492_2_121, benchmark motif instance, in_library_check FALSE, in_library_coverage 0
  motif_found: FALSE
HD2 library, bait MAP1LC3B_ATG8__Q9GZQ8_2_119, benchmark motif instance, in_library_check FALSE, in_library_coverage 0
  motif_found: FALSE

## ELSMFQLPTLNFSPEQ
Library HD, bait ANKRA2_Ank__Q9H9E1_142_313, ProP-PD peptides with disease-related mutations
  confidence: 3

## LRRGQILWFRGLNRIQTQIDVINTFQTGASFKGVLRRQNMGQHLDVKLVPSSSYIKVVKAFHSS [ATP2B4]
Bait CALM1_EF-hand__P0DP23_2_149, library HD2, benchmarking set of validated motif instances, TRUE = motif instance recovered in the ProP-PD selection
  motif_found: FALSE

## AASVNANFAHFDNFPK
[4]
  HD2_endomembrane confidence: 4

## DKAITDRVILLQKVIRGFKDRSNFLKLKNA [MYO7A 748-763]
HD2 library, bait CALM1_EF-hand__P0DP23_2_149, benchmark motif instance, in_library_check FALSE, in_library_coverage 0
  motif_found: FALSE

## SKSSNASWPPEFQPGVPWKGIQNIDPES
[5]
  motif_found: FALSE

## DIDQMFSTLLGEMDLLTQSLGVDT
[6]
  motif_found: FALSE

## ECISSAMPKKKKPSRLKGDNE
[7]
  motif_found: FALSE

## LQDVQPSPINPFSAFF
[1]
  best_specificity: 1
[2]
  best_confidence: 2
[3]
  motif_found: TRUE

## MSARPSLPPLPAKPAG
[8]
  HD confidence: 2
  HD count proportions: 0.0001907
  HD mean counts: 3.25
[9]
  HD2 confidence: 2

## LKVLVKAVLFACMLMRK
[10]
  motif_found: FALSE

## QLSPNAKEFVYNGGGS
Bait PABP-B_PABP__P11940_544_623, HD2 library, confidence level (1-4) of best matching selected peptide
  best_confidence: 4
Bait PABP-B_PABP__P11940_544_623, HD2 library, specificity score of best matching selected peptide
  best_specificity: 1
[5]
  motif_found: TRUE

## LSKMQQNGYENPTYKFFEQMQN
[6]
  motif_found: FALSE

## NEEINIASSDSEVEIVGVQEHARC
HD2 library, bait SUMO1_SUMO__P63165_1_101, known motif instance of the benchmarking set found (TRUE) or not found (FALSE) among selected peptides
  motif_found: FALSE

## DDDVLIVYELTPTAEQ
Bait SUMO1_SUMO__P63165_1_101, HD2 library, confidence level (1-4) of best matching selected peptide
  best_confidence: 2
Bait SUMO1_SUMO__P63165_1_101, HD2 library, specificity score of best matching selected peptide
  best_specificity: 1
Bait SUMO1_SUMO__P63165_1_101, HD2 library, whether the validated benchmark motif instance was recovered in the ProP-PD selection (TRUE/FALSE)
  motif_found: TRUE

## ASFTEDAPRPPVPGEEGELVST
HD2 library, bait TNKS_TANK-peptide-bind__O95271_174_649, known motif instance of the benchmarking set found (TRUE) or not found (FALSE) among selected peptides
  motif_found: FALSE

## AQSMVSGSHCTPPPPY
Bait NEDD4_WW_4 (P46934 890-928), HD2 library, benchmark motif instance recovered in the ProP-PD selection (TRUE/FALSE)
  motif_found: TRUE
Bait NEDD4_WW_4 (P46934 890-928), HD2 library, confidence level (1-4) of best matching peptide
  best_confidence: 4
Bait NEDD4_WW_4 (P46934 890-928), HD2 library, specificity score of best matching peptide
  best_specificity: 0.99

## ESSNLCMPDLPHLLAF
[9]
  HD2 confidence: 4

## IYKSAVTTVVNPKYEGK----- [ITGB1 789-796]
HD2 library, bait TLN1_PTB__Q9Y490_309_401, benchmark motif instance, in_library_check FALSE, in_library_coverage 0
  motif_found: FALSE

## PSNPDLDAGVSEHSGDWLD
Library HD2, bait USP7_MATH-TRAF__Q93009_53_206, validated benchmark motif instance, in_library_check TRUE, TRUE/FALSE = instance recovered in ProP-PD selection
  motif_found: FALSE

## ATLDALLAALRRIQRAD
[10]
  motif_found: FALSE

## EETFQLSRWTPFIKDI
[11]
  HD confidence: 3
  HD count proportions: 0.004596
  HD mean counts: 9.0

## LSVSPARWAEEYLEQSEEK
Bait PEX14_Pex14__O75381_16_84, HD2 library, whether the validated benchmark motif instance was recovered in the ProP-PD selection (TRUE/FALSE)
  motif_found: FALSE

## QENMRSSPNPFITGLTRTN
[3]
  motif_found: FALSE

## EGALGGAFPPPPPPIEESF
[12]
  motif_found: FALSE

## WEALNDSVKTSMHWVV
[13]
  HD2-1mM_CaCl confidence: 2
[14]
  HD2 confidence: 3

## TPYTAYPPPAQAYGIP
Bait CEP55_EABR__Q53EZ4_160_217, HD2 P8 nucleocytoplasmic sublibrary, confidence level (4 = High, 2-3 = Medium, 1 = Low)
  HD2_nc confidence: 4
Bait CEP55_EABR__Q53EZ4_160_217, HD2 P8 nucleocytoplasmic sublibrary, mean NGS counts over replicate selections
  HD2_nc mean counts: 482.0
Bait CEP55_EABR__Q53EZ4_160_217, HD2 P8 nucleocytoplasmic sublibrary, mean proportion of NGS counts
  HD2_nc count proportions: 0.008703

## VPSPASLWPPPPSPAPSST
[12]
  motif_found: FALSE

## SPFLPDLNFFAADSCL
Bait ANKRA2_Ank__Q9H9E1_142_313, HD2 P8 selection, confidence level -4 to 4: 4 = High, 3 or 2 = Medium, 1 = Low, 0 = Filtered/Noise
  HD2 confidence: 2

## WADFSSTWPTSTNEKP
[4]
  HD2_endomembrane confidence: 4

## ESFGGGFADFSTLSKV
Bait AP2B1_adaptin__P63010_700_937, library HD2, best matching peptide
  best_specificity: 1
Bait AP2B1_adaptin__P63010_700_937, library HD2, confidence level of best matching peptide (4 = High, 2 or 3 = Medium, 1 = Low)
  best_confidence: 3

## TQRSKPQPAVPPRPSADLIL [NCF1]
Bait CRK_SH3_1_P46108_124_198, library HD2, benchmarking set of validated motif instances, TRUE = motif instance recovered in the ProP-PD selection
  motif_found: FALSE

## GCMKTCPLIDLEVDNGPAQ [GGA2]
Bait CLTC_Clathrin-propeller__Q00610_1_364, library HD2, benchmarking set of validated motif instances, TRUE = motif instance recovered in the ProP-PD selection
  motif_found: FALSE

## GPTPTEPPPPYSFRPE
Bait NEDD4_WW_4_P46934_890_928, HD2 P8 cytoplasm sublibrary, confidence level (4 = High, 2-3 = Medium, 1 = Low)
  HD2_cytoplasm confidence: 4

## GHSSRTSPLDNVGREL
Bait WDR5_WD_1234567_P61964_21_334, library HD2 P8 nucleus
  HD2_nucleus confidence: 4

## FEAQWAALENKSKQRT
Bait MDM2_p53-binding-domain (Q00987 17-125), HD2 library, benchmark motif instance recovered in the ProP-PD selection (TRUE/FALSE)
  motif_found: TRUE
Bait MDM2_p53-binding-domain (Q00987 17-125), HD2 library, confidence level (1-4) of best matching peptide
  best_confidence: 3
Bait MDM2_p53-binding-domain (Q00987 17-125), HD2 library, specificity score of best matching peptide
  best_specificity: 0.97

## SRWEVIANYMNIHSSS
[13]
  HD2-1mM_CaCl confidence: 3
[14]
  HD2 confidence: 3

## SWVAFAHTGAWGTGLP
Bait AP2B1_adaptin__P63010_700_937, HD2 P8 selection, non primary paralogue peptide match, confidence level -4 to 4: 4 = High, 3 or 2 = Medium, 1 = Low, 0 = Filtered/Noise
  HD2 confidence: 4

## SSGSSEDSFVEIRMAEGEA
Bait MAP1LC3A_ATG8 (Q9H492 2-121), HD2 library, benchmark motif instance recovered in the ProP-PD selection (TRUE/FALSE)
  motif_found: FALSE
Bait MAP1LC3B_ATG8 (Q9GZQ8 2-119), HD2 library, benchmark motif instance recovered in the ProP-PD selection (TRUE/FALSE)
  motif_found: FALSE

## AGVFKMGRFQVSVAADGAQ
Bait OXSR1___O95747_434_527, HD2 library, whether the validated benchmark motif instance was recovered in the ProP-PD selection (TRUE/FALSE)
  motif_found: FALSE

## DFPPPPPDLEQLRLTD
Library HD2, bait VASP_EVH1__P50552_1_114, confidence level of best matching selected peptide (4 High, 2-3 Medium, 1 Low)
  best_confidence: 2
Library HD2, bait VASP_EVH1__P50552_1_114, specificity score of best matching selected peptide
  best_specificity: 1
[12]
  motif_found: TRUE

## EPSKPAATRKRRWSAPESRK
[7]
  motif_found: FALSE

## SNPFMTGAPTGQFPTG
[1]
  best_specificity: 1
[2]
  best_confidence: 3
[3]
  motif_found: TRUE

## LNQDFSGFQLLVDVALKRAAEM
Bait SIN3A_PAH__Q96ST3_295_383, HD2 library, whether the validated benchmark motif instance was recovered in the ProP-PD selection (TRUE/FALSE)
  motif_found: FALSE

## FFAQLQLDEETGEFLPIQPA
Library HD2, bait Keap1_KELCH__Q14145_321_609, whether the validated benchmark motif instance was recovered in the ProP-PD selection (TRUE/FALSE)
  motif_found: FALSE
